The source of these data is patent US11352365B2, “Biased potent opioid-like agonists as improved medications to treat chronic and acute pain and methods of using the same” (THE UNITED STATES OF AMERICA, AS REPRESENTED BY THE …, priority 2018, dated 2022).

Read-outs that look alike come from different tables or passages of the source.

Data set [1] addresses T1, MOR (Homo sapiens, UniProt P35372). As to the kind of experiment: cell-based. The format is cell-based. Details: expressed in transfected cells; host or cells: CHO-hMOR (membrane variant); SH-SY5Y-hMOR also named. How it is done: Four thousand cells per well were split into 384-well low-volume plate (VWR) with Opti-MEM (Invitrogen) supplemented with 1% FBS for 3 hours at 37° C. except SH-SY5Y-hMOR cells, which were plated for 1 hour at 37° C. Cells were then treated with drugs, […] forskolin for 30 min at room temperature.
Cells were then homogenized by a Dounce homogenizer 15 times in an ice-cold buffer [50 mM Hepes (pH 7.4)], followed by centrifugation at 500 g at 4° C. for 5 min. The supernatant was transferred to a 1.5-ml tube on ice, and the pellet was resuspended, homogenized, and centrifuged at 500 g at 4° C. for 5 min. Then, the supernatant was combined and spun at 20,000 g at 4° C. for 10 min. The membrane pellet was resuspended in an ice-cold buffer [50 mM Hepes (pH 7.4)] at concentrations of […]. Membranes were stored at −80° C. until use. For forskolin-stimulated cAMP accumulation assay, membranes were diluted in an assay buffer (50 mM Hepes, 10 mM MgCl2, 100 mM NaCl, 200 mM adenosine 5′-triphosphate, 10 mM GTP, 100 mM 3-isobutyl-1-methylxanthine, 20 mM forskolin, and 30 mM bovine serum albumin) and plated at […] of protein in each well. Membranes were treated with test compounds for 30 min at room temperature. The cAMP levels were determined as per the manufacturer's instructions (Cisbio cAMP HiRange assay).

For data set [2], the target named is T1, MOR. As to the kind of experiment: cell-based. To be noted: for Emax: read-out: MOR Mediated B-arrestin Recruitment (% Control, Emax DAMGO). Also on record: host or cells: U2OS-β-arrestin2-EFC-hMOR. Type of data set: cell-based. How it is done:
The PathHunter β-arrestin assay. The assay was performed according to the manufacturer's protocol (DiscoveRx) and as described previously. Briefly, 5000 U2OS-β-arrestin2-EFC-hMOR cells were plated in 384-well white plates with Opti-MEM media (Invitrogen) containing 1% FBS±pertussis toxin (100 ng/ml) overnight. The next day, cells were treated with compounds for 90 min at 37° C., followed by a 1-hour incubation of detection reagent at room temperature. Luminescence values were determined by using a Synergy HT luminometer (BioTek).
In general terms: Activated receptors often draw arrestin, which recruitment assays turn into a signal.

Data set [3] addresses T1, MOR. Type of data set: cell-based. Details: expressed in transfected cells; host or cells: CHO-hMOR (membrane variant); SH-SY5Y-hMOR also named.
Data set [4] concerns the target T1, MOR. Also on record: host or cells: U2OS-β-arrestin2-EFC-hMOR. To be noted: cited from earlier work.
The test system of another data set is Male Swiss-Webster mice. In words: Respiration rate and arterial oxygen saturation (MouseOx pulse oximeter) in conscious mice. The conditions noted are these: for respiratory depression in mice: equi-analgesic dose range of morphine. How it is done:
Measurement of respiration rate and arterial oxygen saturation. […] They were housed (five in a cage) in a temperature-controlled environment with a 12-hour light-dark cycle and were supplied with food and water ad libitum. Mice were acclimated for a week in the central animal facility before behavioral testing. On the day of the experiment, mice were brought to the room and acclimated for 45-60 min in the observation boxes. Respiration and oxygen saturation (SpO2) were measured using MouseOx Plus Rat and Mouse Pulse Oximeter (Starr Life Sciences Corp, Oakmont, USA) in conscious, freely moving animals. […] Mice were then placed into observation boxes and recording was started 5 min later to eliminate any anesthesia effect.
Data are expressed as mean±standard error of the mean (S.E.M.), and p<0.05 was accepted as statistically significant. GraphPad Prism, version 7, was used for data analysis.

The subject of the next data set is δ and μ opioid receptors. In words: In vitro potency ratio at δ and μ opioid receptors. The format is cell-based.
[5] abbreviates: Table 3, inhibition of forskolin-induced cAMP accumulation, read-out: MOR cAMP Agonist Potency ± SEM.
Setting [6] is: Table 3, read-out: MOR Mediated B-arrestin Recruitment.
[7] abbreviates: Table 2, read-out: MOR cAMP Agonist (% Efficacy) (converted).
Where [8] appears, read: Table 3, read-out: MOR cAMP Agonist (% Efficacy) (converted).
[9] abbreviates: Table 2, inhibition of forskolin-induced cAMP accumulation, read-out: MOR cAMP Agonist Potency ± SEM.
[10] abbreviates: Table 2, read-out: MOR Mediated B-arrestin Recruitment.
[11] abbreviates: Table 4, read-out: MOR cAMP Agonist Potency ± SEM.

T1 sequence (P35372 whole entry): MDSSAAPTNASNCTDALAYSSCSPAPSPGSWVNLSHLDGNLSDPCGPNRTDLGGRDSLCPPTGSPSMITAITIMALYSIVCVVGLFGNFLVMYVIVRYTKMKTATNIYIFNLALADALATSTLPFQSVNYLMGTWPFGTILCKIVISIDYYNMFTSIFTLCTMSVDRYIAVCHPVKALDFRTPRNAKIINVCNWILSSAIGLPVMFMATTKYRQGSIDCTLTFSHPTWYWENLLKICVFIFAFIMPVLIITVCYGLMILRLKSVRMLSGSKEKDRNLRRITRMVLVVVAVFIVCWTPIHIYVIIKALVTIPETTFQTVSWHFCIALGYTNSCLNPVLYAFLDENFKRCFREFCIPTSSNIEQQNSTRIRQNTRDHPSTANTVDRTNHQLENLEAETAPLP

Consider `C[C@@H]1[C@@H]2CCC[C@@]1(c1cccc(O)c1)CCN2CCc1ccccc1` (single isomer, unassigned) [(−)-48], for which the EC50 at MOR [1] (setting [5]) was 12.1 ± 4.01 nM; on MOR [2] (setting [6]) it was more than 25000 nM.
Consider `CCOC(=O)/C=C1\[C@H]2CCC[C@]1(c1cccc(O)c1)CCN2CCc1ccccc1` [Compound 26, Ethyl (Z)-2-(5-(3-hydroxyphenyl)-2-phenethyl-2-azabicyclo[3.3.1]nonan-9-ylidene)acetate], for which the Emax at MOR [1] (setting [7]) was 100%; on MOR [2] (Table 2), 22.2%. In addition, at MOR [3] (Table 2), the “Bias Factor” value was 179.
In the case of `Oc1cccc(C23CCC[C@H]([C@H]2O)N(C/C=C/c2ccccc2)CC3)c1` (stereo in doubt) [Compound 52, (1R,5R,9S)-2-Cinnamyl-5-(3-hydroxyphenyl)-2-azabicyclo[3.3.1]nonan-9-ol], the Emax at MOR [1] (setting [8]) was 100%. Moreover, the “Bias Factor” value at MOR [3] (Table 3) is given as 27.120.
On to `Oc1cccc([C@]23CCC[C@H]([C@H]2O)N(C[C@H]2C[C@@H]2c2ccccc2)CC3)c1` (stereo in doubt) [Compound 45, (1R,5S,9R)-5-(3-hydroxyphenyl)-2-((trans-2-phenylcyclopropyl)methyl)-2-azabicyclo[3.3.1]nonan-9-ol], for which the EC50 on MOR [1] came out at 0.12 nM; at MOR [2], 22 nM. In addition, the Emax on MOR [1] (read-out: MOR cAMP Agonist (% Efficacy)) is 100%; on MOR [2] it was 22%. Further, on MOR [3], the “Bias Factor” value turned out to be 6.1.
For `COc1ccsc1CNCC[C@@]1(c2ccccn2)CCOC2(CCCC2)C1` [TRV130], on MOR [4], the “beta-arrestin recruitment (in words), noted for known compound” value is recorded as “does recruit beta-arrestin slightly”.
For `C[C@@H]1[C@@H]2CCC[C@@]1(c1cccc(O)c1)CCN2CCc1ccccc1` [(−)-48], the “Bias Factor” value at MOR [3] (Table 3) was 2056.
Turning to `C[C@@H](NC(=O)[C@@H](N)Cc1ccc(O)cc1)C(=O)NCC(=O)N(C)[C@@H](Cc1ccccc1)C(=O)NCCO` [DAMGO, reference compound], at MOR [3], the “Bias Factor” value is listed as 1.
On to `CCOC(=O)C[C@@H]1[C@H]2CCC[C@]1(c1cccc(O)c1)CCN2CCc1ccccc1` [Compound 27, Ethyl 2-(5-(3-hydroxyphenyl)-2-phenethyl-2-azabicyclo[3.3.1]nonan-9-yl)acetate], for which the EC50 at MOR [1] (setting [9]) worked out at 14.6 ± 3.99 nM; on MOR [2] (setting [10]), 175 ± 42.6 nM. In addition, the Emax is 90.4% on MOR [1] (setting [7]) and 1.5% at MOR [2] (Table 2). Moreover, on MOR [3] (Table 2), the “Bias Factor” value is given as 6.7.
`OC/C=C/[C@H]1[C@@H]2CCC[C@@]1(c1cccc(O)c1)CCN2CCc1ccccc1` [Compound 37, 3-((1S,5R,9R)-9-((E)-3-Hydroxyprop-1-en-1-yl)-2-phenethyl-2-azabicyclo[3.3.1]nonan-5-yl)phenol]: the EC50 at MOR [1] (setting [9]) worked out at 2.31 ± 0.78 nM. Further, the Emax at MOR [1] (setting [7]) was 33.5%. The “Bias Factor” value at MOR [3] (Table 2) amounted to 6794.
As for `CCC[C@H]1[C@@H]2CCC[C@@]1(c1cccc(O)c1)CCN2CCc1ccccc1` [Compound 15, 3-(2-Phenethyl-9-propyl-2-azabicyclo[3.3.1]nonan-5-yl)phenol], the EC50 at MOR [1] (setting [9]) amounted to 0.95 ± 0.35 nM. In addition, the Emax on MOR [1] (setting [7]) was 63.3%. The “Bias Factor” value at MOR [3] (Table 2) is listed as 23,442.
With `C[C@@H]1C2CCC[C@@]1(c1cccc(O)c1)CCN2CCc1ccccc1` (single isomer, unassigned; (-)) [(−)-48], the Emax at MOR [1] (setting [8]) is 71%.
With `CCOC(=O)C[C@H]1[C@@H]2CCC[C@@]1(c1cccc(O)c1)CCN2CCc1ccccc1` [Compound 28, Ethyl 2-(5-(3-hydroxyphenyl)-2-phenethyl-2-azabicyclo[3.3.1]nonan-9-yl)acetate], the EC50 at MOR [1] (setting [9]) stood at 3.97 ± 1.8 nM; on MOR [2] (setting [10]) it was 58.8 ± 34.7 nM. Besides, the Emax at MOR [1] (setting [7]) is 78%; at MOR [2] (Table 2), 2.18%. In addition, the “Bias Factor” value at MOR [3] (Table 2) is listed as 4.8.
For the compound `O=C1CCC2C3Cc4ccc(O)c5c4[C@@]2(CCN3CCc2ccc(Cl)cc2)[C@H]1O5` (stereo partly drawn) [Compound 71, 3-(4-Chlorophenethyl)-9-hydroxy-2,3,4,4a,5,6-hexahydro-1H-4,12-methanobenzofuro[3,2-e]isoquinolin-7(7aH)-one], the Emax was 98.8% at MOR [1] (Table 4, read-out: MOR cAMP Agonist (% Efficacy) (converted)) and 44.8% at MOR [2] (Table 4). Further, the EC50 at MOR [1] (setting [11]) came out at 0.05 ± 0.03 nM; at MOR [2] (Table 4, read-out: MOR Mediated B-arrestin Recruitment), 2.44 ± 0.45 nM. For the same compound, in the data set with Male Swiss-Webster mice, the “respiratory depression in mice” value was “did not depress respiration”. Further, the “effect on respiration rate (AUC 6 min to 45 min post injection) compared to saline” value in the data set on Male Swiss-Webster mice (mice, s.c., 0.01-0.1 mg/kg) is “no effect on respiration rate”. Moreover, the “Bias Factor” value on MOR [3] (Table 4) amounted to 0.82. In addition, the “δ/μ ratio (in vitro potency ratio at δ and μ opioid receptors)” value with δ and μ opioid receptors is “approximately 1”.
In the case of `Oc1cccc2c1O[C@H]1CN(CCc3ccccc3)[C@H]3CCC[C@@]21C3` [Compound 70, (3S,6aR,11aR)-2-Phenethyl-1,3,4,5,6,11a-hexahydro-2H-3,6a-methano-benzofuro[2,3-c]azocin-10-ol], the EC50 on MOR [1] (setting [5]) was 0.5 ± 0.24 nM; at MOR [2] (setting [6]) it was more than 25000 nM. Also, at MOR [1] (setting [8]), the Emax was 32.8%. Also, the “Bias Factor” value at MOR [3] (Table 3) amounted to 21454.
As to `CN1CC[C@]23c4c5ccc(O)c4O[C@H]2[C@@H](O)C=C[C@H]3[C@H]1C5` [Morphine, reference compound], the “respiratory depression in mice” value in the data set on Male Swiss-Webster mice is reported as “did repress respiration”.
Take `C[C@H]1[C@H]2CCC[C@@]1(c1cccc(O)c1)CCN2CCc1ccccc1` [(+)-48]: the EC50 at MOR [1] (setting [5]) stood at 0.4 ± 0.12 nM; at MOR [2] (setting [6]), 7.72 ± 4.6 nM. The Emax on MOR [1] (setting [8]) was 91%; at MOR [2] (Table 3) it was 1.8%. Also, the “Bias Factor” value at MOR [3] (Table 3) was 6.7.
As to `O=C1CCC2C3Cc4ccc(O)c5c4[C@@]2(CCN3CCc2ccc(Br)cc2)[C@H]1O5` (stereo partly drawn) [Compound 72, 3-(4-Bromophenethyl)-9-hydroxy-2,3,4,4a,5,6-hexahydro-1H-4,12-methanobenzofuro[3,2-e]isoquinolin-7(7aH)-one], the EC50 on MOR [1] (setting [11]) turned out to be 0.15 ± 0.04 nM. Also, the “agonist character at the mu-receptor (in words)” value on MOR [1] (in vitro data) was “potent μ agonist”. Besides, the “δ/μ ratio (in vitro potency ratio at δ and μ opioid receptors)” value in the data set with δ and μ opioid receptors is “approximately 5”.
With `OC[C@@H]1CC[C@@]2(c3cccc(O)c3)CCN(CCc3ccccc3)[C@H]1C2` (stereo in doubt) [Compound 35, 3-(8-(Hydroxymethyl)-2-phenethyl-2-azabicyclo[3.3.1]nonan-5-yl)phenol], the EC50 is 3.07 ± 2.2 nM at MOR [1] (setting [9]) and more than 25000 nM on MOR [2] (setting [10]). The Emax at MOR [1] (setting [7]) was 10.9%. The “Bias Factor” value at MOR [3] (Table 2) worked out at 1254.
